For series [1], the system named is miniature pig model of ADPKD. To be noted: cited from earlier work.
The subject of series [2] is orthologous mouse model of ADPKD. The following applies: cited from earlier work.
A further series has as its system high fat diet mice. The following applies: cited from earlier work.
The test system of series [3] is ZSF1 rat model of diabetic nephropathy. To be noted: cited from earlier work.
The test system of series [4] is Pkd1 knockout mouse model of ADPKD. To be noted: orthologous Pkd1 knockout mouse model of ADPKD; cited from earlier work.
Another series addresses T1, AMPKα1β1γ1 (Homo sapiens, UniProt Q13131+Q9Y478).
T1 construct: purchased Carna Biosciences 02-113
In words: AMPKα1β1γ1 biochemical assay (LabChip EZ Reader mobility shift). To be noted: EC50 of Table 1; activation, normalized to DMSO vehicle control; read-out: Human AMPK AMPKα1β1γ1 EC50. Here is the method:
(§1) Compounds disclosed herein were evaluated for their ability to activate AMPKα1β1γ1 by measuring phosphorylation of a commercially available fluorescent AMPK substrate using the LabChip® EZ Reader microfluidic system that is based on a mobility shift principle in which unphosphorylated fluorescent substrates may be separated and distinguished from phosphorylated fluorescent substrates due to the difference in negative charge. Briefly, compounds were serial diluted 3-fold in 100% DMSO for an 11-point dose-response curve. A 20 nL aliquot of diluted compound was transferred into a 384-well plate using a liquid handler (Labcyte Inc., Echo 550). A pre-prepared solution (10 mM MgCl2, 0.01% Brij-35, 2 mM DTT, 0.05% BSA, 1 mM EGTA, and 50 mM HEPES pH 7.5) was combined with 0.83 nM AMPKα1β1γ1 (Carna Biosciences, 02-113). The enzyme solution (15 μL) was aliquoted into each well and the plate was incubated at 24° C. for 30 min. A second stock solution (10 mM MgCl2, 0.01% Brij-35, 2 mM DTT, 0.05% BSA, 1 mM EGTA, 800 μM ATP, and 50 mM HEPES pH 7.5) was combined with 6 μM fluorescent peptide substrate for AMPKal (Perkin Elmer, 760351). The kinase reaction was initiated by adding 5 μL of the second solution containing substrate and ATP to each well. The plate was incubated at 24° C. for 90 minutes and 75 μL of 0.5 M EDTA was added to terminate the reaction. The plates were analyzed using a LabChip® EZ Reader (Perkin Elmer, 122919) and the effective concentration to achieve 50% of the maximal activity (EC50) was calculated after normalizing to the DMSO vehicle control.

A further series addresses T2, AMPKα1β2γ1 (Homo sapiens, UniProt O43741+Q13131).
T2 construct: purchased Carna Biosciences (printed only as 'Biosciences') 02-147
The experiment in a line: AMPKα1β2γ1 biochemical assay (LabChip EZ Reader mobility shift). The following applies: second EC50 column of Table 1 (head repeats α1β1γ1; text says α1β2γ1 isoform); read-out: Human AMPK AMPKα1β1γ1 EC50. Here is the method: as §1
The same procedure above was also used to measure activation of the AMPKα1β2γ1 isoform, replacing AMPKα1β1γ1 with AMPKα1β2γ1 Biosciences 02-147).

The subject of the next series is Wistar Han rats. To be noted: 14 days of treatment in Wistar Han rats; cited from earlier work.
The mark [5] stands for this setting: ZSF1 progressive rat model of diabetic nephropathy.

pEC50: −log10 of the molar value.

T2 sequence (Q13131 whole entry): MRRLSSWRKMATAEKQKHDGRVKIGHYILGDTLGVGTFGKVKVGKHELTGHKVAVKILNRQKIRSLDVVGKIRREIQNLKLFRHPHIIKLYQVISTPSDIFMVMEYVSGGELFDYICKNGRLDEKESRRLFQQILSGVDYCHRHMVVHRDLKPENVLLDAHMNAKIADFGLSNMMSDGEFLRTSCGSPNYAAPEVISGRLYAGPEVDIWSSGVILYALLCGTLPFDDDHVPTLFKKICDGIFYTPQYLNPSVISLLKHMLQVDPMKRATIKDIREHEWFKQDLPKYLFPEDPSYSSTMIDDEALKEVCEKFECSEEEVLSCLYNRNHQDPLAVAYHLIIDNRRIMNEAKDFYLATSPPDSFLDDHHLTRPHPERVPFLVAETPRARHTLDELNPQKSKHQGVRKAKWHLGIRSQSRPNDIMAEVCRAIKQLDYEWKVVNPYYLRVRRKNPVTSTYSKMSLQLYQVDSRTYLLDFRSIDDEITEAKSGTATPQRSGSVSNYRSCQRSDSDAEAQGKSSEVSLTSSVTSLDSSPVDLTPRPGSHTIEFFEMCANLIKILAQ
T2 sequence (O43741 whole entry): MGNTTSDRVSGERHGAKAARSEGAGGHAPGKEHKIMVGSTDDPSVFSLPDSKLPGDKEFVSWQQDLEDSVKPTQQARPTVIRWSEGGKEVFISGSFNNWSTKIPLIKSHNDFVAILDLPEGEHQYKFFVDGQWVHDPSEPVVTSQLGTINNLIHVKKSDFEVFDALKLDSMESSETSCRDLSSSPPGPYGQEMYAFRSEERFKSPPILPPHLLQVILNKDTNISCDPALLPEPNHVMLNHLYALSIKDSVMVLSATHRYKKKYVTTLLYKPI
T2 sequence (P54619 whole entry partner): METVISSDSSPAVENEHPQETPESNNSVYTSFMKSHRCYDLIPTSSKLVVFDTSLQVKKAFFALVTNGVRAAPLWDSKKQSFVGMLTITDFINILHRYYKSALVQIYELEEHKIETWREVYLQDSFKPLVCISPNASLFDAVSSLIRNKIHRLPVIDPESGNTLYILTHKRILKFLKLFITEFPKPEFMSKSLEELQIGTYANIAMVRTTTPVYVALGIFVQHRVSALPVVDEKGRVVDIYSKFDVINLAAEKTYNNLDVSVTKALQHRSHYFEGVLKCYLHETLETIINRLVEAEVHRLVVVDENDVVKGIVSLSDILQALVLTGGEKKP
T1 sequence (Q13131 whole entry): as the sequence (Q13131 whole entry) above
T1 sequence (Q9Y478 whole entry): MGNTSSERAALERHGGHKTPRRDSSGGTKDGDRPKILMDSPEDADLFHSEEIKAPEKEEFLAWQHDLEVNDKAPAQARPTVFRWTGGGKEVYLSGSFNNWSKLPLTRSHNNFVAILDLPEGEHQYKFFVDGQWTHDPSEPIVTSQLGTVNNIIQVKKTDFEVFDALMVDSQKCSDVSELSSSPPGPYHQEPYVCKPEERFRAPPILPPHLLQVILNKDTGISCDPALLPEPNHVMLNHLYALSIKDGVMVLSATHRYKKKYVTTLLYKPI
T1 sequence (P54619 whole entry partner): as the sequence (P54619 whole entry partner) above

Take `CN(C)C(=N)N=C(N)N` [Metformin]: the cystic kidney disease result in series [1] and in series [2] was “attenuate cystic kidney disease” each time. In addition, the “high fat diet-induced metabolic derangement and renal injury” value in the series on high fat diet mice was “reduce high fat diet-induced metabolic derangement and renal injury”.

For `O=C(O)c1c[nH]c2cc(Cl)c(-c3ccc(C4(O)CCC4)cc3)cc12` [PF-06409577], the proteinuria entry in series [3] (ZSF1 rat model of diabetic nephropathy) was “reduced proteinuria”.

Consider `O=C(Oc1ccccc1C(=O)O)c1ccccc1O` [salsalate], for which the cystic disease severity entry in series [4] is listed as “attenuate cystic disease severity”.

Regarding `COc1nc(N2C[C@H]3CCO[C@H]3C2)ccc1-c1cc2c(C(=O)O)c[nH]c2cc1Cl` (racemic) [Example 28, racemic-6-chloro-5-(6-((cis)-hexahydro-5H-furo[2,3-c]pyrrol-5-yl)-2-methoxypyridin-3-yl)-1H-indole-3-carboxylic acid], the pEC50 on AMPKα1β1γ1 is at least 7.30; at AMPKα1β2γ1 it was below 5.00.

With MK-8722, in the series with Wistar Han rats, the cardiac glycogen levels entry is listed as “increased cardiac glycogen levels” and the cardiac hypertrophy entry was “significant cardiac hypertrophy”. In series [3] (setting [5]), the “proteinuria, glomerular filtration rate, and kidney fibrosis” value is recorded as “significant improvements”; the renal protection entry is “renal protective”.

As for `COc1nc(N2C[C@H]3CN(C(C)=O)C[C@H]3C2)ccc1-c1cc2c(C(=O)O)c[nH]c2cc1Cl` [Example 38, 5-(6-((3aR,6aS)-5-acetylhexahydropyrrolo [3,4-c]pyrrol-2(1H)-yl)-2-methoxypyridin-3-yl)-6-chloro-1H-indole-3-carboxylic acid], the pEC50 at AMPKα1β1γ1 is at least 7.30; on AMPKα1β2γ1, 5.00 to 6.60.

As for `COc1nc(N2CC3(COC3)C2)ccc1-c1c(F)cc2[nH]cc(C(=O)O)c2c1F` [Example 41, 4,6-difluoro-5-(2-methoxy-6-(2-oxa-6-azaspiro[3.3]heptan-6-yl)pyridin-3-yl)-1H-indole-3-carboxylic acid], the pEC50 was at least 7.30 at AMPKα1β1γ1 and below 5.00 on AMPKα1β2γ1.

Consider `COc1nc(N2CC3(CC(=O)N(C)C3)C2)ccc1-c1cc2c(C(=O)O)c[nH]c2cc1Cl` [Example 22, 6-chloro-5-(2-methoxy-6-(6-methyl-7-oxo-2,6-diazaspiro[3.4]octan-2-yl)pyridin-3-yl)-1H-indole-3-carboxylic acid], for which the negative logarithm of the EC50 (pEC50) on AMPKα1β1γ1 is at least 7.30; on AMPKα1β2γ1 it was below 5.00.

On to `COC[C@@H]1[C@H]2CN(c3ccc(-c4cc5c(C(=O)O)c[nH]c5cc4Cl)c(OC)n3)C[C@@H]12` [Example 9, 6-chloro-5-(2-methoxy-6-((trans)-6-(methoxymethyl)-3-azabicyclo[3.1.0]hexan-3-yl)pyridin-3-yl)-1H-indole-3-carboxylic acid], for which the pEC50 at AMPKα1β1γ1 is at least 7.30; at AMPKα1β2γ1, below 5.00.

In the case of `COc1nc(N2CC3(CC(N)C3)C2)ccc1-c1cc2c(C(=O)O)c[nH]c2cc1Cl` [Example 10, 5-(6-(6-amino-2-azaspiro[3.3]heptan-2-yl)-2-methoxypyridin-3-yl)-6-chloro-1H-indole-3-carboxylic Acid], the pEC50 on AMPKα1β1γ1 is at least 7.30; on AMPKα1β2γ1 it was below 5.00.

For `COc1nc(N2CC3(COC3)C2)ccc1-c1cc2c(C(=O)O)c[nH]c2cc1Cl` [Example 1, 6-chloro-5-(2-methoxy-6-(2-oxa-6-azaspiro[3.3]heptan-6-yl)pyridin-3-yl)-1H-indole-3-carboxylic Acid], the results for the pEC50 on AMPKα1β1γ1 and at AMPKα1β2γ1 were at least 7.30 and below 5.00, respectively.

As to `COc1nc(N2C[C@H]3COC[C@@H]3C2)ccc1-c1cc2c(C(=O)O)c[nH]c2cc1Cl` [Example 34, 6-chloro-5-(2-methoxy-6-((3aS,6aS)-tetrahydro-1H-furo[3,4-c]pyrrol-5(3H)-yl)pyridin-3-yl)-1H-indole-3-carboxylic acid], the pEC50 on AMPKα1β1γ1 was at least 7.30; on AMPKα1β2γ1, 5.00 to 6.60.

Regarding `COc1nc(N2CC3CC3(O)C2)ccc1-c1cc2c(C(=O)O)c[nH]c2cc1Cl` (racemic) [Example 26, racemic-6-chloro-5-(6-(1-hydroxy-3-azabicyclo[3.1.0]hexan-3-yl)-2-methoxypyridin-3-yl)-1H-indole-3-carboxylic acid], the pEC50 on AMPKα1β1γ1 was at least 7.30; at AMPKα1β2γ1 it was below 5.00.

On to `COc1nc(N2CC3(CCOC3)C2)ccc1-c1cc2c(C(=O)O)c[nH]c2cc1Cl` [Example 21, 6-chloro-5-(2-methoxy-6-(6-oxa-2-azaspiro[3.4]octan-2-yl)pyridin-3-yl)-1H-indole-3-carboxylic acid], for which the pEC50 on AMPKα1β1γ1 was at least 7.30; on AMPKα1β2γ1 it was below 5.00.

Consider `COc1nc(N2CC3(CCC(=O)N3)C2)ccc1-c1cc2c(C(=O)O)c[nH]c2cc1Cl` [Example 17, 6-chloro-5-(2-methoxy-6-(6-oxo-2,5-diazaspiro[3.4]octan-2-yl)pyridin-3-yl)-1H-indole-3-carboxylic acid], for which the pEC50 was 7.00 to 7.30 at AMPKα1β1γ1 and below 5.00 at AMPKα1β2γ1.

`COc1nc(N2CC3(CCC3O)C2)ccc1-c1cc2c(C(=O)O)c[nH]c2cc1Cl` (racemic) [Example 25, racemic-6-chloro-5-(6-(5-hydroxy-2-azaspiro[3.3]heptan-2-yl)-2-methoxypyridin-3-yl)-1H-indole-3-carboxylic acid]: the pEC50 at AMPKα1β1γ1 is 7.00 to 7.30; on AMPKα1β2γ1 it was below 5.00.

As for `COc1nc(N2C[C@@H]3[C@H](C2)[C@H]3OC)ccc1-c1cc2c(C(=O)O)c[nH]c2cc1Cl` [Example 23, 6-chloro-5-(2-methoxy-6-((trans)-6-methoxy-3-azabicyclo[3.1.0]hexan-3-yl)pyridin-3-yl)-1H-indole-3-carboxylic acid], the pEC50 at AMPKα1β1γ1 is 7.00 to 7.30; at AMPKα1β2γ1, below 5.00.

For `COc1nc(N2CC3(CCNC3=O)C2)ccc1-c1cc2c(C(=O)O)c[nH]c2cc1Cl` [Example 18, 6-chloro-5-(2-methoxy-6-(5-oxo-2,6-diazaspiro[3.4]octan-2-yl)pyridin-3-yl)-1H-indole-3-carboxylic acid], the pEC50 is at least 7.30 at AMPKα1β1γ1 and below 5.00 at AMPKα1β2γ1.

On to `COc1nc(N2C[C@H]3COC[C@H]3C2)ccc1-c1cc2c(C(=O)O)c[nH]c2cc1Cl` [Example 27, 6-chloro-5-(2-methoxy-6-((cis)-tetrahydro-1H-furo[3,4-c]pyrrol-5(3H)-yl)pyridin-3-yl)-1H-indole-3-carboxylic Acid], for which the pEC50 at AMPKα1β1γ1 was 7.00 to 7.30; on AMPKα1β2γ1 it was below 5.00.

With `COc1nc(N2CC3(CC(O)C3)C2)ccc1-c1cc2c(C(=O)O)c[nH]c2cc1Cl` [Example 4, 6-chloro-5-(6-(6-hydroxy-2-azaspiro[3.3]heptan-2-yl)-2-methoxypyridin-3-yl)-1H-indole-3-carboxylic acid], the pEC50 on AMPKα1β1γ1 was at least 7.30; at AMPKα1β2γ1, below 5.00.

As to `COc1nc(N2CC3(CCCO3)C2)ccc1-c1cc2c(C(=O)O)c[nH]c2cc1Cl` [Example 8, 6-chloro-5-(2-methoxy-6-(5-oxa-2-azaspiro[3.4]octan-2-yl)pyridin-3-yl)-1H-indole-3-carboxylic acid], the pEC50 at AMPKα1β1γ1 was at least 7.30; on AMPKα1β2γ1 it was below 5.00.

Regarding `COc1nc(N2CCC3(COC3)C2)ccc1-c1cc2c(C(=O)O)c[nH]c2cc1Cl` [Example 5, 6-chloro-5-(2-methoxy-6-(2-oxa-6-azaspiro[3.4]octan-6-yl)pyridin-3-yl)-1H-indole-3-carboxylic acid], the pEC50 at AMPKα1β1γ1 was at least 7.30; at AMPKα1β2γ1 it was below 5.00.

`COc1nc(N2C[C@@H]3[C@@H](O)[C@@H]3C2)ccc1-c1cc2c(C(=O)O)c[nH]c2cc1Cl` [Example 24, 6-chloro-5-(6-((trans)-6-hydroxy-3-azabicyclo[3.1.0]hexan-3-yl)-2-methoxypyridin-3-yl)-1H-indole-3-carboxylic acid]: the negative-log EC50 (pEC50) at AMPKα1β1γ1 is at least 7.30; at AMPKα1β2γ1 it was 5.00 to 6.60.
